For eight compounds, TGI results are on record in PubChem BioAssay (NCI).

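Values below derive from 48-hour exposures of cells grown in 96-well plates, with endpoints linearly interpolated between the two concentrations bracketing the appropriate inhibition level. TGI is the concentration that stops growth completely.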 A value given as a limit tells only on which side of the number the result lay.

Some test systems named below: MDA-MB-231 breast; BT-549 breast; SF-268 CNS; UACC-62 melanoma; UACC-257 melanoma; HS 578T breast; MOLT-4 leukemia; 786-0 renal; MCF7 breast; RXF 393 renal; MDA-MB-435; OVCAR-3 ovarian; NCI-H226 lung; OVCAR-4 ovarian; SN12C renal; RPMI-8226 leukemia; SNB-75 CNS.
Common to all, as to test: growth of human tumour cells (NCI), 48 h

Consider `COC(=O)[C@@H]1C2OC(C)(C)OC2CN1C(=O)OCc1ccccc1` (stereo partly specified), for which the TGI in the test on MDA-MB-231 breast, with BT-549 breast, with SF-268 CNS, with UACC-62 melanoma, in the test on UACC-257 melanoma and in the test with HS 578T breast was > 100 µM throughout. The TGI in the test with MOLT-4 leukemia, in the test on 786-0 renal, with MCF7 breast, in the test on RXF 393 renal, in the test on MDA-MB-435 and in the test with OVCAR-3 ovarian was > 100 µM throughout. Besides, the TGI in the test with NCI-H226 lung, in the test with OVCAR-4 ovarian, in the test with SN12C renal, with RPMI-8226 leukemia and in the test with SNB-75 CNS was > 100 µM in each case.

For `COC(=O)[C@]12CCC(C)(C)C[C@H]1C1=CC[C@@H]3[C@@]4(C)CC[C@H](OC5OC(CO)C(O)C(O)C5OC5OC(CO)C(O)C(O)C5O)C(C)(C)[C@@H]4CC[C@@]3(C)[C@]1(C)CC2` (stereo partly specified), the TGI in the test on MDA-MB-231 breast is 7.2 µM; in the test on BT-549 breast it was 35.8 µM; in the test on SF-268 CNS, 31.2 µM; with UACC-62 melanoma, 23.9 µM; in the test on UACC-257 melanoma, 20.3 µM; in the test on HS 578T breast, 56.8 µM. In addition, the TGI stood at 40.8 µM with MOLT-4 leukemia; 23.8 µM in the test with 786-0 renal; 24.4 µM in the test with MCF7 breast; 19.7 µM in the test with RXF 393 renal; 20.8 µM in the test with MDA-MB-435; 22.4 µM with OVCAR-3 ovarian. Moreover, the TGI in the test on NCI-H226 lung is 14.5 µM; with OVCAR-4 ovarian, 15.6 µM; with SN12C renal, 15.9 µM; in the test on RPMI-8226 leukemia, 48.3 µM; with SNB-75 CNS, 26.4 µM.

Regarding `NC1=CN(Cc2ccccc2)C2=N/C(=C\c3ccccc3)C(=O)N12`, the TGI in the test on MDA-MB-231 breast, in the test with BT-549 breast, with SF-268 CNS, with UACC-62 melanoma, with UACC-257 melanoma and with HS 578T breast was > 100 µM throughout. The TGI in the test with MOLT-4 leukemia, in the test with 786-0 renal, in the test with MCF7 breast, in the test with RXF 393 renal, with MDA-MB-435 and with OVCAR-3 ovarian was > 100 µM each time. Moreover, the TGI in the test with NCI-H226 lung, in the test on OVCAR-4 ovarian, in the test on SN12C renal, in the test on RPMI-8226 leukemia and in the test with SNB-75 CNS was > 100 µM in each case.

Turning to `NCCCCN(CCCN)Cc1ccccc1`, the TGI in the test with MDA-MB-231 breast, in the test on BT-549 breast, with SF-268 CNS, with UACC-62 melanoma, in the test on UACC-257 melanoma and with HS 578T breast was > 100 µM in each case. In addition, the TGI in the test with MOLT-4 leukemia, with 786-0 renal, with MCF7 breast, in the test with RXF 393 renal, with MDA-MB-435 and in the test on OVCAR-3 ovarian was > 100 µM throughout. The TGI in the test with NCI-H226 lung, with OVCAR-4 ovarian, with SN12C renal, with RPMI-8226 leukemia and with SNB-75 CNS was > 100 µM throughout.

Consider `CCCN(CCC)c1cc2c(cc1F)c(=O)c(C(=O)O)cn2-c1ccc(N2CCN(C)CC2)cn1`, for which the TGI with MDA-MB-231 breast was 27.1 µM; with BT-549 breast, 25 µM; with SF-268 CNS it was 30.7 µM; in the test with UACC-62 melanoma it was 39.6 µM; with UACC-257 melanoma it was 36.4 µM; in the test with HS 578T breast it was 35.1 µM. The TGI was 43.4 µM with MOLT-4 leukemia; 36.8 µM in the test with 786-0 renal; 53.3 µM in the test with MCF7 breast; 33.1 µM in the test with RXF 393 renal; 38.9 µM with MDA-MB-435; 29.7 µM with OVCAR-3 ovarian. In addition, the TGI came out at 31.1 µM with NCI-H226 lung; 43.3 µM with OVCAR-4 ovarian; 46 µM in the test with SN12C renal; 40.4 µM in the test on RPMI-8226 leukemia; 28.3 µM with SNB-75 CNS.

As for `COc1cc(Br)cc2nc(-c3cccs3)oc12`, the TGI in the test with MDA-MB-231 breast was > 100 µM; in the test on BT-549 breast it was > 100 µM; in the test with SF-268 CNS, > 100 µM; with UACC-62 melanoma, > 100 µM; in the test with UACC-257 melanoma it was > 100 µM; with HS 578T breast, > 68 µM. Moreover, the TGI in the test with MOLT-4 leukemia, in the test on 786-0 renal, with MCF7 breast, in the test on RXF 393 renal, in the test with MDA-MB-435 and in the test on OVCAR-3 ovarian was > 100 µM in each case. Further, the TGI was > 100 µM in the test with NCI-H226 lung; > 100 µM in the test with OVCAR-4 ovarian; > 100 µM in the test on SN12C renal; > 100 µM in the test on RPMI-8226 leukemia; > 85.9 µM in the test on SNB-75 CNS.

`Nc1ccc2cc3[nH]c4cc(N)ccc4c3nc2c1`: the TGI with MDA-MB-231 breast came to 2.09 µM; with BT-549 breast, 3.15 µM; with SF-268 CNS, 1.8 µM; in the test with UACC-62 melanoma it was 0.708 µM; in the test with UACC-257 melanoma, 0.761 µM; with HS 578T breast it was 2.57 µM. Also, the TGI is 6.76 µM in the test with MOLT-4 leukemia; 1.39 µM in the test with 786-0 renal; 1.7 µM with MCF7 breast; 1.98 µM with RXF 393 renal; 1.23 µM in the test with MDA-MB-435; 2.69 µM in the test on OVCAR-3 ovarian. Besides, the TGI in the test with NCI-H226 lung was 1.8 µM; with OVCAR-4 ovarian it was 3.02 µM; with SN12C renal, 1.17 µM; in the test on RPMI-8226 leukemia, > 100 µM; in the test with SNB-75 CNS, 1.33 µM.

`N#Cc1c(N)c2c(c(-c3ccccc3)c1-c1ccccc1)C(=O)N(NC(=O)c1ccccc1)C2=O`: the TGI in the test with MDA-MB-231 breast, with BT-549 breast, with SF-268 CNS, with UACC-62 melanoma, with UACC-257 melanoma and in the test on HS 578T breast was > 100 µM in each case. Further, the TGI with MOLT-4 leukemia, in the test with 786-0 renal, in the test on MCF7 breast, in the test on RXF 393 renal, in the test with MDA-MB-435 and in the test on OVCAR-3 ovarian was > 100 µM in each case. For the same compound, the TGI in the test on NCI-H226 lung, in the test with OVCAR-4 ovarian, in the test with SN12C renal, with RPMI-8226 leukemia and in the test with SNB-75 CNS was > 100 µM in each case.
